Data: patent publication US20250170121A1, “ISOQUINOLINONE COMPOUND, AND PREPARATION METHOD AND USE THEREFOR” (FUDAN UNIVERSITY, priority 2022, published 2025)

Assays:
Human FABP4 = molecular target: T1, Human FABP4 (Homo sapiens, UniProt P15090); assay: FABP4 inhibition rate, ANS substrate competition (fluorescence) method; format: binding; conditions: compound 25 μM; 10 μM 1,8-ANS, 10 μM FABP4
T1 construct: His tag; made in house; host or cells: E. coli BL21 (DE3)
From the text: (§1) Considering that inhibition of FABP3 would cause myocardial function damage and bring potential safety issues, we tested the inhibitory activity of some compounds on FABP3. The activity test is illustrated by the example of the FABP4 activity test system as below.
(§2) Experimental principle and method: Once the free non-covalent fluorescent probe ANS binds to FABP4, the ANS fluorescence intensity will increase and its spectrum will be blue shifted. In this experiment, the inhibitory effect of the compound on FABP4 was evaluated by measuring the change in the ANS fluorescence signal value. For the FABP4 inhibitory activity test, the ANS substrate competition method was used, and we used the method of Kane and Bernlohr (E. Marr, M. Tardie, M. Carty, T. Brown Phillips, I. K. Wang, W. Soeller, X. Qiu, G. Karam, Expression, purification, crystallization and structure of human adipocyte lipid-binding protein (aP2). Acta Crystallogr., Sect. F: Struct. Biol. Cryst. Commun. 62 (2006) 1058-1060.). Human FABP4 with a His tag was expressed in the BL21 (DE3) strain and then purified using a Ni column with a His tag to generate the protein. In the detection system, the concentration of 1,8-ANS substrate was 10 μM, the final concentration of FABP4 was 10 μM, and then the compound prepared by the present invention was added at the required concentration for incubation for 3 minutes, and finally the fluorescence signal was detected at an excitation wavelength (EX) of 370 nm/emission wavelength (EM) of 470 nm. The inhibition rate (%) of the test sample on FABP4 was calculated according to the fluorescence absorption value of the system. The inhibition rate (%) was calculated according to the following equation: […]
(§3) FX represents the fluorescence value (fluorescence, F) of the system measured in the presence of compound x;
(§4) Fbackground represents the fluorescence value of the fluorescent substrate ANS;
(§5) F0% represents the fluorescence value of the system when the inhibition rate is 0%, that is, when no compound was added.

FABP5 = FABP5 (Homo sapiens, UniProt Q01469); assay: FABP5 inhibition rate, ANS substrate competition method (illustrated by the FABP4 system); format: binding; conditions: compound 25 μM
FABP3 = FABP3 (Homo sapiens, UniProt P05413); assay: FABP3 inhibition rate, ANS substrate competition method (illustrated by the FABP4 system); format: binding; conditions: compound 25 μM
From the text: as §1, §2, §3, §4, §5

3T3-L1 cells = assay: Lipolysis inhibition in differentiated mature 3T3-L1 adipocytes (supernatant glycerol, forskolin stimulation); format: cell-based; conditions: 80 μM compound, 24 h incubation, 20 μM forskolin 2 h; FIG. 1
Method: In this example, the lipolysis inhibitory activity of the compounds prepared in the present invention on differentiated mature 3T3-L1 preadipocytes was measured.
5 In adipocytes, FABP4 plays the role of a fatty acid chaperone, and gene knockout or drug inhibition of FABP4 can be used to inhibit lipolysis and promote lipid production in adipocytes. Therefore, the lipolysis experiment can be used as a confirmation indicator of the FABP4 inhibitory activity of the compound. In this experiment, the lipolysis activity of the compounds was evaluated by measuring the effect of the compounds prepared in the present 10 invention on the glycerol content of the supernatant of mature adipocytes.
Experimental materials: 3T3-L1 preadipocytes; calf serum, fetal bovine serum, high glucose H-DMEM culture medium, 3-isobutyl-1-methylxanthine (IBMX), dexamethasone, insulin, Forskolin, glycerol determination kit, BCA protein concentration determination kit.
1. 3T3-L1 preadipocytes were inoculated on culture plates and cultured in high-glucose DMEM containing 10% calf serum in a 37° C., 5% CO2 incubator;
2. After the cells were fully grown, contact inhibition was performed for two days;
3. […]
6. The cell supernatant was collected to measure the glycerol content, the intracellular protein concentration was measured by BCA method for calibration, and finally Graphpad Prism was used to analyze the results.

[1] = test system: MCP-1 secretion in THP-1 cells; assay: MCP-1 secretion in LPS-stimulated THP-1 monocyte-derived macrophages (ELISA); format: cell-based; conditions: FIG. 2; for secretion of inflammatory factor MCP-1 in THP-1 mononuclear macrophages: 25 μM, 10 μM and 5 μM, 18 h incubation, 100 ng/ml LPS 6 h; for MCP-1 reducing activity compared with BMS309403 and RO6806051: THP-1 macrophages, LPS
From the text: (§6) In FIG. 2A to FIG. 2C, the vertical axis represents the amount (ng) of MCP-1 contained in each mg of cell protein: in FIG. 2D, the vertical axis represents the relative concentration of MCP-1 (ng/mg cellular protein % LPS). Wherein, Control represents blank control treatment, LPS represents lipopolysaccharide treatment, BMS309403 represents inhibitor positive control treatment, RO6806051 (RO) represents lead compound treatment, and Y2, Y3, Y15, Y16 and Y18 represent treatments with compounds Y2, Y3, Y15, Y16 and Y18 prepared in the present invention, respectively.
(§7) Effects of the compounds on monocyte chemoattractant factor-1 (MCP-1) and interleukin-6 (IL-6) in THP-1 monocyte-derived macrophage.
(§8) First, monocytic cell line THP-1 in logarithmic growth phase was plated on a 96-well plate at a cell density of 5*10^5/ml; then 100 nM phorbol myristate ester (PMA) was added to induce the cells for 24 hours to differentiate into macrophages; then the cells were washed once or twice with phosphate buffered saline (PBS), and different concentrations of compounds (5, 10, 25 μM) were added for incubation for 18 hours; finally, after 6 hours of stimulation with 100 ng/ml lipopolysaccharide (LPS), the supernatant was collected and diluted to a certain multiple and the contents of MCP-1 and IL-6 were detected using enzyme-linked immunosorbent assay (ELISA), and cell protein was collected and the protein concentration was measured by BCA method for calibration.

[2] = test system: IL-6 secretion in THP-1 cells; assay: IL-6 secretion in LPS-stimulated THP-1 monocyte-derived macrophages (ELISA); format: cell-based; conditions: FIG. 3
From the text: as §6, with “3,” for “2A to FIG. 2C,”, “protein.” for “protein: in FIG. 2D, the vertical axis represents the relative concentration of MCP-1 (ng/mg cellular protein % LPS).”, “Control (Con)” for “Control”
as §7, §8

prostate cancer cells = conditions: background statement; cited from earlier work

Chain of FABP5 (Q01469 whole entry): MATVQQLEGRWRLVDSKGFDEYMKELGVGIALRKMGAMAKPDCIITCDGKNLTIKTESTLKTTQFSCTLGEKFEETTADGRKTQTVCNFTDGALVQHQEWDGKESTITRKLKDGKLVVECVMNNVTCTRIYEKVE
T1 sequence (P15090 whole entry): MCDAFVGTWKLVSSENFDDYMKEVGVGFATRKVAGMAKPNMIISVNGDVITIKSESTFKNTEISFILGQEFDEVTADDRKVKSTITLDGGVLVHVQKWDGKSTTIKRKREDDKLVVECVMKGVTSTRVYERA
Chain of FABP3 (P05413 whole entry): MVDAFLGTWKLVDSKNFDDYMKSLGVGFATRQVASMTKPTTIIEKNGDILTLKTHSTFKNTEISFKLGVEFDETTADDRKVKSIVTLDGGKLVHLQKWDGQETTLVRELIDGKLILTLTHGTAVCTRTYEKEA

Row | Compound | inhibition at 25 µM (Human FABP4) [%] | inhibition at 25 µM (FABP5) [%] | inhibition at 25 µM (FABP3) [%] | glycerol content of the supernatant under FSK (forskolin) stimulation (3T3-L1 cells) | secretion of inflammatory factor MCP-1 in THP-1 mononuclear macrophages [1] | MCP-1 reducing activity compared with BMS309403 and RO6806051 [1] | IL-6 secretion, tendency (no concentration stated) [2] | effect on prostate cancer cell proliferation, metastasis and apoptosis (prostate cancer cells)
1 | O=C(O)c1c(-c2ccccc2)c2cc(Cl)ccc2c(=O)n1CC1CCCCC1 [Compound Y2, 6-Chloro-2-(cyclohexylmethyl)-1-oxo-4-phenyl-1,2-dihydroisoquinoline-3-carboxylic Acid] | 93 | 73 | 48 | significantly reduce the glycerol content | could reduce the secretion of inflammatory factor MCP-1 | better than those of the positive control FABP4 inhibitor BMS309403 and the lead compound RO6806051 | tendency to reduce IL-6 secretion but with no statistical difference | 
2 | CCc1c(-c2ccccc2)c(-c2ccccc2)nn1-c1ccccc1-c1cccc(OCC(=O)O)c1 [BMS309403] |  |  |  |  |  |  |  | inhibit cell proliferation and metastasis and promote cell apoptosis
3 | O=C(O)c1c(-c2ccccc2)c2cc(Cl)ccc2c(=O)n1C1CCCC1 [Compound Y3, 6-Chloro-2-cyclopentyl-1-oxo-4-phenyl-1,2-dihydroisoquinoline-3-carboxylic Acid] | 93 | 68 | 36 | significantly reduce the glycerol content | could reduce the secretion of inflammatory factor MCP-1 | better than those of the positive control FABP4 inhibitor BMS309403 and the lead compound RO6806051 | tendency to reduce IL-6 secretion but with no statistical difference | 
